Measured values as given in PMC9229255, “New Cladiellin-Type Diterpenoids from the South China Sea Soft Coral Cladiella krempfi: Structures and Molecular Docking Analysis in EGFRs” (Marine Drugs, 2022).

Experiments:
EGFR [1] = molecular target: T1, EGFR (Homo sapiens, UniProt P00533); test: EGFR activity assay (kinase inhibition); type: biochemical; details: concentration 20000 nM; read-out: EGFR inhibitory data, Mean (percentage of inhibition)
Experimental: Six compounds were screened on EGFRs using staurosporine obtained from MedChemExpress (Cat. No. HY-15141; Lot. No. 41248) as the reference compound. In the bioassay for the EGFRs, testing kinases were performed in 1× kinase base buffer containing 50 mM HEPES (pH 7.5) and 0.0015% Brij-35, and stop buffer containing 100 mM HEPES (pH 7.5), 0.0015% Brij-35, 0.2% Coating Reagent #3, and 50 mM EDTA. For the compound preparing part, compounds were diluted to 50X of the final desired highest inhibitor concentration in the reaction by 100% DMSO, and 100 µL of the compound dilution was transferred to a well in a 96-well plate. Additionally, 100 µL of 100% DMSO was added to two empty wells for a no-compound control and a no-enzyme control in the same 96-well plate, which was marked as the source plate. […]. The compounds were mixed in an intermediate plate for 10 min on a shaker. For the assay plate, 5 µL of each well from the 96-well intermediate plate was transferred to a 384-well plate in duplicates. For the kinase reaction, 2.5× enzyme solution and 2.5× peptide solution were prepared. Moreover, 5 µL of compound were settled in the assay plate with 10% DMSO. Additionally, 10 µL of 2.5× enzyme solution was added to each well of the 384-well assay plate that was incubated at room temperature for 10 min. Then, 10 µL of 2.5× peptide solution was added to each well of the 384-well that was incubated at 28 °C for 30 min and stopped by 25 µL stop buffer. The percentage of inhibition was estimated using max-conversion divided by the max-min, and inhibition values were converted by convert conversion values from the caliper program. IC50 values were obtained from fitting the data in the XLfit excel add-in version 4.3.1.

EGFR [2] = molecular target: T1, EGFR; set-up: method as in PMID 27940262; details: read-out: EGFR inhibitory activity IC50; cited from earlier work
[3] = test system: mouse lymphocytic leukemia L1210 cells; set-up: method as in doi:10.1021/jo00269a027; details: as low as; cited from earlier work

T1 sequence (P00533 25-1210): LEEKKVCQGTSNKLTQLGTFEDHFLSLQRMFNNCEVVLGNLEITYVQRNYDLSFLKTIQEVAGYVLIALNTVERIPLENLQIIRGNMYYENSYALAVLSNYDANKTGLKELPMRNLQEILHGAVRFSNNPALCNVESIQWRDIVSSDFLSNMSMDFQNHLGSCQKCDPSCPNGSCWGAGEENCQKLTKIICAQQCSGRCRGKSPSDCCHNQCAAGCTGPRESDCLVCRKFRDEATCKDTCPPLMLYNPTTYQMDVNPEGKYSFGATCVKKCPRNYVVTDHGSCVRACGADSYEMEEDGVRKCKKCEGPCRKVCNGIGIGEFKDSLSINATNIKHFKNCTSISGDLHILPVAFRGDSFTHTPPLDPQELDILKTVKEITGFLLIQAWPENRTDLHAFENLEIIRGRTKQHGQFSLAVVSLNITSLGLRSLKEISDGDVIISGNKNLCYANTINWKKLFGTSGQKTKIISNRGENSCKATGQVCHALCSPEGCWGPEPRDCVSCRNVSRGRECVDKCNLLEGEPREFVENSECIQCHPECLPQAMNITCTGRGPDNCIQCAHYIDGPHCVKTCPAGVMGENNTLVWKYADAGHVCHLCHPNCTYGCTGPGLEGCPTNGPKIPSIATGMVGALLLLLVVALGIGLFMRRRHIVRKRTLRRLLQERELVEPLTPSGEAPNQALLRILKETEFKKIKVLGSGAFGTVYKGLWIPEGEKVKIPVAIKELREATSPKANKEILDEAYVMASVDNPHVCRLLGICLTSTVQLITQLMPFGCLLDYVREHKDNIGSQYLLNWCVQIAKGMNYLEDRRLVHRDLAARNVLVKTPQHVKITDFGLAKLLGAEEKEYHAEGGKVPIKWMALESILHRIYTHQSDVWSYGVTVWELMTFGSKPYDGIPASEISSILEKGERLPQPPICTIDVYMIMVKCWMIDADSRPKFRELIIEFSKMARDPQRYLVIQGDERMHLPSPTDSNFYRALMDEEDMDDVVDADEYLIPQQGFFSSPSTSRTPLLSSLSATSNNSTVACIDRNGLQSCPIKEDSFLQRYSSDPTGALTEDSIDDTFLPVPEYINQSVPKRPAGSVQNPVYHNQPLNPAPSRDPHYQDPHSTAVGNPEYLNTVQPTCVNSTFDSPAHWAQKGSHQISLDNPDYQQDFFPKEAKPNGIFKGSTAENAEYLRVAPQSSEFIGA

| SMILES | inhibition at 20 µM (EGFR [1]) | further results |
| --- | --- | --- |
| C=C1C(O)CCC(C)(OC(=O)CCC)C2OC(C1OC(C)=O)C1C(=C)C(O)CC(C(C)C)C12 (stereo not drawn) [Compound 1, litophynol C] | -9.9% | melting point: 183 to 184 °C |
| C=C1C(OO)CCC(C)(OC(=O)CCC)C2OC(C1OC(C)=O)C1C(=C)C(O)CC(C(C)C)C12 (stereo not drawn) [Compound 2, litophynol D] | -12.5% | – |
| C=C1CC[C@H](C(C)C)[C@@H]2[C@H]1[C@@H]1O[C@H]2[C@](C)(OC(=O)CCC)CC[C@H](O)C(=C)[C@H]1O [Compound 3, litophynol A] | -3.8% | – |
| CCCC(=O)O[C@]1(C)CC[C@H](C(C)C)[C@@H]2[C@H]1[C@H]1C[C@](C)(O)[C@@H](O)CC[C@@](C)(OC(C)=O)[C@@H]2O1 [pachycladin A] | – | IC50 (EGFR [2]): 500 nM |
| C=C1CC[C@H](C(C)C)[C@@H]2[C@H]1[C@H]1C[C@](C)(O)[C@@H](O)CC[C@@](C)(O)[C@@H]2O1 [sclerophytin A] | – | concentration showing significant cytotoxicity [3]: 1 ng/mL |

Further lines, with some results ahead:

| inhibition at 20 µM (EGFR [1]) | SMILES | further results |
| --- | --- | --- |
| -3.4% | C=C1CC[C@H](C(C)C)[C@@H]2[C@H]1[C@@H]1O[C@H]2[C@](C)(OC(=O)CCC)CC[C@H](O)C(=C)[C@H]1OC(=O)CCC [Compound 4, 8-butyryl-litophynol A] | – |
| -7.5% | C=C1CC[C@H](C(C)C)[C@@H]2[C@H]1[C@@H]1O[C@H]2[C@](C)(OC(=O)CCC)CC[C@H](OC)[C@@](C)(O)[C@H]1O [Compound 5, kremfielin B] | – |
| -4.9% | C=C1CC[C@H](C(C)C)[C@@H]2[C@H]1[C@H]1C[C@](C)(O)[C@@H](O)CC[C@@](C)(OC(=O)CCC)[C@@H]2O1 [Compound 6, litophynin E] | – |
